The record followed here is patent publication US8287923B2, “Compositions and methods for treating immune disorders” (priority 2005, dated 2012).

This experiment deals with NS-SV-AC cells. Description: TNF-α-induced cytotoxicity, MTT assay. It counts as cell-based, human. Particulars: cells exposed to TNF-α and EGCG in presence of inhibitor. On the procedure: TNF-α cyotoxicity: NS-SV-AC cells (0.5×10<4> cells/well) were seeded in a 96-well microplate and either treated for 24 hr with EGCC as described above (or not treated in the control), in the presence of 100 ng/ml TNFα and 10 μg/ml cyclohexamide. After the treatments, viability was determined by the MTT assay. The cells in each well were washed with 200 μl of phosphate-buffered saline (PBS) and incubated with 100 μl of 2% (w/v) MTT in a solution of 0.05 M Tris-HCl (pH 7.6), 0.5 mM MgCl2, 2.5 mM CoCl2 and 0.25 M disodium succinate at 37° C. for 30 min. Cells were fixed by the addition of 100 μl of 4% (v/v) formalin in 0.2 M Tris-HCl (pH 7.6), and after a 5 min incubation at room temperature liquid was removed and the wells were allowed to dry. Each well was rinsed with 200 μl water and cells were solubilized by the addition of 100 μl of 6.35% (v/v) 0.1 N NaOH in DMSO. The colored formazan product was measured by a Thermo MAX micro plate reader (Molecular Devices Corp. Sunnyvale, Calif.) at a wavelength of 562 nm.
We examined the effects of EGCG on TNF-α-induced cytotoxicity of the human salivary gland acinar cell line NS-SV-AC using the MTT assay.
To examine the role of activation of the p38 signaling pathway in reducing TNF-α-induced cytotoxicity, cells were exposed to TNF-[alpha] and EGCG in the presence of either the p38 MAPK inhibitor SB203580 or the MEK inhibitor PD98059.
For orientation: Tetrazolium dyes change colour on reduction, which living cells bring about.

Take `C[S+]([O-])c1ccc(-c2nc(-c3ccncc3)c(-c3ccc(F)cc3)[nH]2)cc1` (centres unmarked) [SB203580]: the “effect on protection by EGCG against TNF-α-induced loss of cell viability” value is on record as “significantly reduced the protective effect of EGCG”.

Regarding `COc1cccc(-c2cc(=O)c3ccccc3o2)c1N` [PD98059], the “effect on protection by EGCG against TNF-α-induced loss of cell viability” value is given as “significantly reduced the protective effect of EGCG”.
